Test results: EP4667467A1, “PROTAC DEGRADERS OF MLLT1 AND/OR MLLT3” (Dark Blue Therapeutics Ltd, priority 2024, dated 2025)

Target: T1, MLLT1 (Homo sapiens, UniProt Q03111)
T1 construct: endogenous in cells; host or cells: MV4-11 (ATCC CRL-9591)
T1 sequence (Q03111 1-559): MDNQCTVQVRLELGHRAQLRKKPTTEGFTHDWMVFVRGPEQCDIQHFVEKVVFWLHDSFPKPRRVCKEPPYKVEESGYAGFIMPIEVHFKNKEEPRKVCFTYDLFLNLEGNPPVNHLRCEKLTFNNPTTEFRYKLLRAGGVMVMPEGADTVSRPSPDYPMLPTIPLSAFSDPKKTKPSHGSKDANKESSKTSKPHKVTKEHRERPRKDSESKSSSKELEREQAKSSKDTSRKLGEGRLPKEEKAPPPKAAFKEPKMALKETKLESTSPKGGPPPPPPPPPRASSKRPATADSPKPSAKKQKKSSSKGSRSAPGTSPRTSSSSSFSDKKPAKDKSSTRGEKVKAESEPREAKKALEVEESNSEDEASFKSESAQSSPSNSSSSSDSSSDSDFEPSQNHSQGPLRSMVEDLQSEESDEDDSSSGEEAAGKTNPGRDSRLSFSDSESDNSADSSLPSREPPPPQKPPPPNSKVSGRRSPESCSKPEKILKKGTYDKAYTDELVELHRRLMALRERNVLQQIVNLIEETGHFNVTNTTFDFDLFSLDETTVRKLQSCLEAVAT
Experiment: MLLT1 Degradation Assay (JESS automated chemiluminescent detection, MV4-11 cells)
Format: cell-based
Conditions: 24h, with respect to DMSO control; for MLLT1 % Degradation @ 0.01 µM: 0.01 µM (10 nM) test compound; for MLLT1 % Degradation @ 0.1 µM: 0.1 µM (100 nM) test compound; for MLLT 1 % Degradation @ 1 µM: 1 µM (1000 nM) test compound
Experimental: MLLT1 degradation efficacy of compounds were tested in an automated chemiluminescent detection system (JESS, Cat# 004-650). […] 10 mM DMSO stocks were prepared, and cells were treated with three concentrations of test compounds viz. 1000, 100 and 10 nM at a final DMSO concentration of 0.1% and incubated for 24h at 37°C, 5% CO2. […] Post run, data were analysed using "Compass for SW" software for chemiluminescent detection. The peak area for each band was used for the calculation of MLLT1 degradation with respect to DMSO control. Data is shown as "MLLT1 % degradation".

MLLT1 % Degradation @ 0.01 µM	MLLT1 % Degradation @ 0.1 µM	MLLT 1 % Degradation @ 1 µM	Compound
A (Category A: A ≥ 75% degradation)	A (Category A: A ≥ 75% degradation)	A (Category A: A ≥ 75% degradation)	CN1CCC[C@@H]1c1cc2cnc(NC(=O)c3ccc(N4CCC(C#Cc5cccc6c5CN(C5CCC(=O)NC5=O)C6=O)CC4)nc3)cc2[nH]1 (stereo partly drawn) [Example 17, 6-(4-((2-(2,6-dioxopiperidin-3-yl)-1-oxoisoindolin-4-yl)ethynyl)piperidin-1-yl)-N-(2-((R)-1-methylpyrrolidin-2-yl)-1H-pyrrolo[3,2-c]pyridin-6-yl)nicotinamide]
A (Category A: A ≥ 75% degradation)	A (Category A: A ≥ 75% degradation)	A (Category A: A ≥ 75% degradation)	CN1CCC[C@@H]1c1cc2cnc(NC(=O)c3ccc(OCC#Cc4cccc5c4CN(C4CCC(=O)NC4=O)C5=O)nc3)cc2[nH]1 (stereo partly drawn) [Example 2, 6-((3-(2-(2,6-dioxopiperidin-3-yl)-1-oxoisoindolin-4-yl)prop-2-yn-1-yl)oxy)-N-(2-((R)-1-methylpyrrolidin-2-yl)-1H-pyrrolo[3,2-c]pyridin-6-yl)nicotinamide]
A (Category A: A ≥ 75% degradation)	A (Category A: A ≥ 75% degradation)	A (Category A: A ≥ 75% degradation)	C[C@H](C#Cc1cccc2c1CN(C1CCC(=O)NC1=O)C2=O)Oc1ccc(C(=O)Nc2cc3[nH]c([C@H]4CCCN4C)cc3cn2)cc1 (stereo partly drawn) [Example 25, 4-(((2R)-4-(2-(2,6-dioxopiperidin-3-yl)-1-oxoisoindolin-4-yl)but-3-yn-2-yl)oxy)-N-(2-((R)-1-methylpyrrolidin-2-yl)-1H-pyrrolo[3,2-c]pyridin-6-yl)benzamide]
A (Category A: A ≥ 75% degradation)	A (Category A: A ≥ 75% degradation)	A (Category A: A ≥ 75% degradation)	CN1CCC[C@@H]1c1cc2cnc(NC(=O)c3ccc(OCC#Cc4cccc5c4CN(C4CCC(=O)NC4=O)C5=O)cc3)cc2[nH]1 (stereo partly drawn) [Example 51, 4-((3-(2-(2,6-dioxopiperidin-3-yl)-1-oxoisoindolin-4-yl)prop-2-yn-1-yl)oxy)-N-(2-((R)-1-methylpyrrolidin-2-yl)-1H-pyrrolo[3,2-c]pyridin-6-yl)benzamide]

Compound	MLLT1 % Degradation @ 0.01 µM	MLLT1 % Degradation @ 0.1 µM	MLLT 1 % Degradation @ 1 µM
CN1CCC[C@@H]1c1cc2cnc(NC(=O)c3cccc(OCC#Cc4cccc5c4CN(C4CCC(=O)NC4=O)C5=O)c3)cc2[nH]1 (stereo partly drawn) [Example 58, 3-((3-(2-(2,6-dioxopiperidin-3-yl)-1-oxoisoindolin-4-yl)prop-2-yn-1-yl)oxy)-N-(2-((R)-1-methylpyrrolidin-2-yl)-1H-pyrrolo[3,2-c]pyridin-6-yl)benzamide]	B (Category B: 50% ≤ B < 75% degradation)	A (Category A: A ≥ 75% degradation)	C (Category C: 25% ≤ C < 50% degradation)
CN1CCC[C@@H]1c1cc2cnc(NC(=O)c3ccc(N4CCN(CC#Cc5cccc6c5CN(C5CCC(=O)NC5=O)C6=O)CC4)nc3)cc2[nH]1 (stereo partly drawn) [Example 6, 6-(4-(3-(2-(2,6-dioxopiperidin-3-yl)-1-oxoisoindolin-4-yl)prop-2-yn-1-yl)piperazin-1-yl)-N-(2-((R)-1-methylpyrrolidin-2-yl)-1H-pyrrolo[3,2-c]pyridin-6-yl)nicotinamide]	A (Category A: A ≥ 75% degradation)	A (Category A: A ≥ 75% degradation)	B (Category B: 50% ≤ B < 75% degradation)
CN1CCC[C@@H]1c1cc2cnc(NC(=O)c3ccc(CCCC#Cc4cccc5c4CN(C4CCC(=O)NC4=O)C5=O)nc3)cc2[nH]1 (stereo partly drawn) [Example 12, 6-(5-(2-(2,6-dioxopiperidin-3-yl)-1-oxoisoindolin-4-yl)pent-4-yn-1-yl)-N-(2-((R)-1-methylpyrrolidin-2-yl)-1H-pyrrolo[3,2-c]pyridin-6-yl)nicotinamide]	B (Category B: 50% ≤ B < 75% degradation)	A (Category A: A ≥ 75% degradation)	A (Category A: A ≥ 75% degradation)
CN1CCC[C@@H]1c1cc2cnc(NC(=O)CCCCCCCCNc3cccc4c3C(=O)N(C3CCC(=O)NC3=O)C4=O)cc2[nH]1 (stereo partly drawn) [Example 30, 9-{[2-(2,6-dioxopiperidin-3-yl)-1,3-dioxoisoindol-4-yl]amino}-N-{2-[(2R)-1-methylpyrrolidin-2-yl]-1H-pyrrolo[3,2-c]pyridin-6-yl}nonanamide]	C (Category C: 25% ≤ C < 50% degradation)	B (Category B: 50% ≤ B < 75% degradation)	A (Category A: A ≥ 75% degradation)
3-(1-(3-(1-(2-(2,6-dioxopiperidin-3-yl)-1,3-dioxoisoindolin-4-yl)piperidin-4-yl)propyl)-1H-pyrazol-4-yl)-N-(2-((R)-1-methylpyrrolidin-2-yl)-1H-pyrrolo[3,2-c]pyridin-6-yl)benzamide [Example 47]	C (Category C: 25% ≤ C < 50% degradation)	B (Category B: 50% ≤ B < 75% degradation)	A (Category A: A ≥ 75% degradation)
CN1CCC[C@@H]1c1cc2cnc(NC(=O)CCCCCCNc3cccc4c3C(=O)N(C3CCC(=O)NC3=O)C4=O)cc2[nH]1 (stereo partly drawn) [Example 29, 7-{[2-(2,6-dioxopiperidin-3-yl)-1,3-dioxoisoindol-4-yl]amino}-N-{2-[(2R)-1-methylpyrrolidin-2-yl]-1H-pyrrolo[3,2-c]pyridin-6-yl}heptanamide]	D (Category D: D < 25% degradation)	C (Category C: 25% ≤ C < 50% degradation)	A (Category A: A ≥ 75% degradation)
CN1CCC[C@@H]1c1cc2cnc(NC(=O)c3ccc(-c4cnn(CCCCC#Cc5cccc6c5CN(C5CCC(=O)NC5=O)C6=O)c4)cc3)cc2[nH]1 (stereo partly drawn) [Example 59, 4-(1-(6-(2-(2,6-dioxopiperidin-3-yl)-1-oxoisoindolin-4-yl)hex-5-yn-1-yl)-1H-pyrazol-4-yl)-N-(2-((R)-1-methylpyrrolidin-2-yl)-1H-pyrrolo[3,2-c]pyridin-6-yl)benzamide]	A (Category A: A ≥ 75% degradation)	A (Category A: A ≥ 75% degradation)	B (Category B: 50% ≤ B < 75% degradation)
CN1CCC[C@H]1c1cc2cnc(NC(=O)c3ccc(CCCNc4cccc5c4C(=O)N(C4CCC(=O)NC4=O)C5=O)cc3)cc2[nH]1 (stereo partly drawn) [Example 37, 4-(3-{[2-(2,6-dioxopiperidin-3-yl)-1,3-dioxoisoindol-4-yl]amino}propyl)-N-{2-[(2S)-1-methylpyrrolidin-2-yl]-1H-pyrrolo[3,2-c]pyridin-6-yl}benzamide]	B (Category B: 50% ≤ B < 75% degradation)	A (Category A: A ≥ 75% degradation)	A (Category A: A ≥ 75% degradation)
CN1CCC[C@@H]1c1cc2cnc(NC(=O)c3ccc(CCC#Cc4cccc5c4CN(C4CCC(=O)NC4=O)C5=O)cc3)cc2[nH]1 (stereo partly drawn) [Example 52, 4-(4-(2-(2,6-dioxopiperidin-3-yl)-1-oxoisoindolin-4-yl)but-3-yn-1-yl)-N-(2-((R)-1-methylpyrrolidin-2-yl)-1H-pyrrolo[3,2-c]pyridin-6-yl)benzamide]	A (Category A: A ≥ 75% degradation)	A (Category A: A ≥ 75% degradation)	B (Category B: 50% ≤ B < 75% degradation)
CN1CCC[C@@H]1c1cc2cnc(NC(=O)c3ccc(-c4cnn(CCCC#Cc5cccc6c5CN(C5CCC(=O)NC5=O)C6=O)c4)cc3)cc2[nH]1 (stereo partly drawn) [Example 21, 4-(1-(5-(2-(2,6-dioxopiperidin-3-yl)-1-oxoisoindolin-4-yl)pent-4-yn-1-yl)-1H-pyrazol-4-yl)-N-(2-((R)-1-methylpyrrolidin-2-yl)-1H-pyrrolo[3,2-c]pyridin-6-yl)benzamide]	A (Category A: A ≥ 75% degradation)	A (Category A: A ≥ 75% degradation)	B (Category B: 50% ≤ B < 75% degradation)
CN1CCC[C@@H]1c1cc2cnc(NC(=O)c3ccc(CCC#Cc4cccc5c4n(C)c(=O)n5C4CCC(=O)NC4=O)cc3)cc2[nH]1 (stereo partly drawn) [Example 53, 4-(4-(1-(2,6-dioxopiperidin-3-yl)-3-methyl-2-oxo-2,3-dihydro-1H-benzo[d]imidazol-4-yl)but-3-yn-1-yl)-N-(2-((R)-1-methylpyrrolidin-2-yl)-1H-pyrrolo[3,2-c]pyridin-6-yl)benzamide]	A (Category A: A ≥ 75% degradation)	A (Category A: A ≥ 75% degradation)	B (Category B: 50% ≤ B < 75% degradation)
